PubChem BioAssay AID1996
Converted amounts (≈) assume the structure as drawn.

Details: buffer; pH 7.4; 200.0 µM

SMILES	solubility kinetic
Cc1cccc(NC(=O)CCNC(=O)c2ccccc2Cl)n1	> 47.7 µg/mL
CCC(NC(=O)C1CCCC1)c1ccc(C)cc1 (stereo not given)	34.8 µg/mL (≈ 142 µM)
CCCNC(=O)Cn1c(=O)n(C)c2ccccc21	> 37.1 µg/mL
S=c1[nH]c2cc(Br)cnc2[nH]1	34.4 µg/mL (≈ 150 µM)
O=C(NCCNC(=O)c1ccc(Cl)cc1Cl)c1cnccn1	37 µg/mL (≈ 109 µM)
O=C1NC2(CCCC2)C(=O)N1Cc1cc(=O)n2ccsc2n1	> 47.8 µg/mL
Br.Cc1ccc(C(=O)Cn2c(=N)n(N)c3ccccc32)cc1	> 54.2 µg/mL
CCN(CC(=O)Nc1ccc2c(c1)OCCO2)CC(=O)Nc1ccc(C)c(S(=O)(=O)N(C)C)c1	35.3 µg/mL (≈ 72 µM)
O=C1Nc2ccccc2C(=O)N2CCCCC12 (stereo not given)	19.3 µg/mL (≈ 83.8 µM)
Cc1cccc(C(=O)NC(=O)Nc2c(C)cc(C)nc2C)c1	> 44.6 µg/mL
COc1ccccc1NC(=O)COc1ccc(C(=O)NCC2CCCO2)cc1OC (stereo not given)	51.5 µg/mL (≈ 124 µM)
COc1ccc(NS(=O)(=O)c2cn(C)c(=O)n(C)c2=O)cc1	> 48.8 µg/mL
Nc1nc(Cl)cc(Oc2ccc(Cl)cc2)n1	1 µg/mL (≈ 3.9 µM)
Cc1nc2ccccc2c(=O)n1Cc1ccco1	> 36 µg/mL
N#Cc1ccc(-c2nc3cc(Cl)ccc3c(=O)n2O)cc1	44 µg/mL (≈ 148 µM)
Nc1nc(-c2ccc3ccccc3c2)cs1	11.8 µg/mL (≈ 52.1 µM)
COc1cccc(C(=O)COc2ccc(NC(=O)c3ccccc3)cc2)c1	< 0.8 µg/mL
Cl.OC1(c2ccccc2)CCN(Cc2ccccc2)CC1	37.6 µg/mL
CC(C)NC(=O)COc1ccc(S(=O)(=O)N2CCCC2)cc1	> 49 µg/mL
Cc1cc(C(=O)N2CCC(C(=O)O)CC2)c(C(F)(F)F)o1	> 45.8 µg/mL
CCCc1c(C)nc(N2CCN(c3cccc(OC)c3)CC2)[nH]c1=O	4 µg/mL (≈ 11.7 µM)
O=S(=O)(NC1=NCCCCC1)c1ccc(Cl)cc1	> 43 µg/mL
CCOC(=O)C1CCN(S(=O)(=O)c2ccccc2[N+](=O)[O-])CC1	44.1 µg/mL (≈ 129 µM)
CSc1ccc(C(=S)N2CCCC2)cc1	29.6 µg/mL (≈ 125 µM)

SMILES	solubility kinetic
O=C(Nc1ncccc1O)c1ccc2c(c1)OCCO2	> 40.8 µg/mL
Cc1ccc(N(CCC#N)C(=O)COC(=O)c2ccccn2)cc1	> 48.5 µg/mL
COCCNC(=O)CSc1ccccc1C(=O)O	> 40.4 µg/mL
Cc1ccccc1OCC(=O)N1CCCCCCC1	> 39.2 µg/mL
COc1cc2nc(NC(=O)c3ccccc3)sc(=O)c2cc1OC	< 0.4 µg/mL
Cc1nc2ccc(NC(=S)NCc3ccccc3)cc2nc1C	> 48.4 µg/mL
S=C(NCc1ccccc1)Nc1cccc2cnccc12	> 44 µg/mL
COc1ccc(SCC2CN(C)CCC2c2ccc(F)cc2)cc1.Cl (stereo not given)	32.5 µg/mL
Nc1nc(Nc2ccccc2)nc(NC2CCCCC2)c1[N+](=O)[O-]	< 0.1 µg/mL
CN(C(=O)c1ccc(NC(=O)c2ccco2)cc1)c1ccccc1	2.9 µg/mL (≈ 9.05 µM)
Cc1cnc(C(=O)OCC(=O)N(Cc2ccccc2)C(C)(C)C)cn1	> 51.2 µg/mL
COc1ccc(CONc2ncnc3nonc23)cc1[N+](=O)[O-]	> 47.7 µg/mL
Cn1c(N)c(C(=O)COC(=O)c2ccccc2C(=O)c2ccc(Cl)cc2)c(=O)n(C)c1=O	6.3 µg/mL (≈ 13.8 µM)
O=C(COC(=O)CCC(=O)c1cccs1)NCc1ccccc1	45.6 µg/mL (≈ 138 µM)
Cc1ccc(S(=O)(=O)N2CCN(Cc3ccco3)CC2)cc1C	13.1 µg/mL (≈ 39.2 µM)
Cc1nc2c(C)cccc2c2c1CCN2c1ccccc1F	33.3 µg/mL (≈ 114 µM)
Cc1cccnc1NC(=O)CNC(=O)C1CCCCC1	> 41.3 µg/mL
O=C(Cc1ccc(F)cc1)NC1CCSC1=O (stereo not given)	> 38 µg/mL
CCn1c(SCC(=O)N2CCCC2)nc2ccccc21	> 43.4 µg/mL
Cc1ccc(NC(=O)c2ccc3nsnc3c2)c(C)c1	1.5 µg/mL (≈ 5.29 µM)
NS(=O)(=O)c1ccc(NC(=O)CCC(=O)N2CCOCC2)cc1	> 51.2 µg/mL
CC(=O)N1N=C(c2ccccc2)OC1c1cccnc1 (stereo not given)	> 40.1 µg/mL
CCC1CCc2sc(C(=O)N3CCCN(C)CC3)cc2C1 (stereo not given)	37.5 µg/mL (≈ 122 µM)
O=C(COC(=O)c1cccc(F)c1)Nc1cccnc1Cl	41.7 µg/mL (≈ 135 µM)

SMILES	solubility kinetic
CC(C)Sc1sc(C(=O)O)c(-c2ccc(Cl)cc2)c1C#N	> 50.7 µg/mL
O=c1ccc2ccccc2n1Cc1cccc(F)c1	> 38 µg/mL
NS(=O)(=O)c1ccc(NC(=O)c2ccc(S(=O)(=O)N3CCCCCC3)cc2)cc1	6.3 µg/mL (≈ 14.4 µM)
Cc1cccnc1NC(=O)Nc1ccc(Cl)cc1	0.7 µg/mL (≈ 2.67 µM)
COc1cccc(N2CC(C(=O)Nc3ccc(F)cc3)CC2=O)c1 (stereo not given)	20.3 µg/mL (≈ 61.8 µM)
CC(C)OC(=O)Cc1nc2sc(-c3ccccc3)cc2c(=O)[nH]1	2 µg/mL (≈ 6.09 µM)
Nc1nc2ccccc2cc1-c1cccs1	27.7 µg/mL (≈ 122 µM)
C=C(c1ccccc1)c1ccc(N(C)C)cc1	2.3 µg/mL (≈ 10.3 µM)
FC(F)(F)c1ccccc1-c1nc(-c2ccncc2)no1	7.6 µg/mL (≈ 26.1 µM)
CCOCCOC(=O)c1[nH]c2c(c1C)C(=O)CC(c1ccccc1)C2 (stereo not given)	2.3 µg/mL (≈ 6.74 µM)
O=C(O)/C=C/C(=O)Nc1nc(-c2ccc3ccccc3c2)cs1	> 48.7 µg/mL
COc1ccc(C(=O)NC(CCSC)C(=O)NC2CC2)cc1 (stereo not given)	> 48.4 µg/mL
COc1ccccc1N1CCN(CC(O)c2ccccc2)CC1 (stereo not given)	37.6 µg/mL (≈ 120 µM)
COc1ccc2c(c1)C(=O)N(c1ccc(C)cc1C)C(=O)C2(C)C	5.3 µg/mL (≈ 16.4 µM)
Nc1oc2ccccc2c(=O)c1-c1ccc2c(c1)OCO2	> 42.2 µg/mL
CC(=O)OC(C(=O)Nc1nccs1)c1ccccc1 (stereo not given)	> 41.4 µg/mL
COc1ccccc1CSc1nc2c(c(=O)n(C)c(=O)n2C)n1C	9.8 µg/mL (≈ 28.3 µM)
CCCCOc1ccc(C2(C)NC(=O)N(C)C2=O)cc1 (stereo not given)	> 41.5 µg/mL
O=C(O)CC(CC(=O)N1CCN(C(=O)c2ccco2)CC1)c1ccccc1 (stereo not given)	> 55.6 µg/mL
O=C(CSc1ncc(C(F)(F)F)cc1Cl)N1CCNC1=O	> 51 µg/mL
Cc1ccc(C(=O)N2CCC(C(=O)NCc3ccco3)CC2)cc1	> 49 µg/mL
CN(CC(=O)Nc1cccc(F)c1)C(=O)c1sc2ccccc2c1Cl	23 µg/mL (≈ 61 µM)
O=C(CCc1ccccc1)Nc1cc2c3c(c1)CC(=O)N3CCC2	> 48.1 µg/mL
COC1=C/C(=C/c2c(O)c(C#N)c3ccccn23)C=CC1=O	17.5 µg/mL (≈ 59.9 µM)

SMILES	solubility kinetic
Cc1sc(NC(=O)COc2ccccc2)c(C#N)c1C	0.5 µg/mL (≈ 1.75 µM)
CC(=O)N1CC(=O)Nc2ccc(F)cc2C1c1ccccc1 (stereo not given)	> 44.7 µg/mL
CCN(CC)c1nc(-c2ccccc2)nc2c1sc(=S)n2CC	< 0.2 µg/mL
COc1ccc(C=NOCC(=O)OCC(=O)Nc2ccc(OC)cc2)cc1	16.1 µg/mL (≈ 43.2 µM)
COC(=O)CNC(=O)/C=C/c1cc(Br)ccc1OC	38.1 µg/mL (≈ 116 µM)
Cn1c(SCc2c(F)cccc2Cl)nc2c(c1=O)SCC2	6.1 µg/mL (≈ 17.8 µM)
O=C(CCCCCCCCN1C(=O)c2ccccc2C1=O)N1CCOCC1	43.4 µg/mL (≈ 117 µM)
COC(=O)c1cc(NC(=O)Cc2cccs2)cc(C(=O)OC)c1	19.5 µg/mL (≈ 58.5 µM)
COc1cc(Br)c(CC(=O)NC2CC2)cc1OC	> 47.1 µg/mL
COC1=C(N2CCOCC2)C(=O)c2ccccc2C1=O	> 41 µg/mL
COc1ccc(CNCc2cccc(C)c2)cc1.O=C(O)C(=O)O	> 49.7 µg/mL
O=[N+]([O-])c1ccc(-n2cnc3ccccc32)c([N+](=O)[O-])c1	> 42.6 µg/mL
O=C(Nc1ccccc1F)c1cc(Cl)sc1Cl	5.2 µg/mL (≈ 17.9 µM)
O=C(O)c1ccc(Nc2cccc(F)c2)c([N+](=O)[O-])c1	> 41.4 µg/mL
CC(=O)c1cn(CC(=O)Nc2ccc(C)c(C)c2)c2ccccc12	< 0.3 µg/mL
Cc1cc(C)nc(SCc2cn3ccccc3n2)n1	> 40.6 µg/mL
COc1ccccc1C1CCN(Cc2ccc(C)cc2)CC1	29.8 µg/mL (≈ 101 µM)
CSc1sccc1/C=C(/C#N)C(=O)c1ccco1	22.6 µg/mL (≈ 82.1 µM)
CC(C)(C)OC(=O)N1CCC(CNC(=O)Nc2ccccc2)CC1	> 50 µg/mL
CC(C)n1c(/N=C/c2ccccc2O)nc2ccccc21	31.4 µg/mL (≈ 112 µM)
COc1ccccc1C1NC(=O)NC(C)=C1C(=O)OC1CCC(C)CC1 (stereo not given)	< 0.4 µg/mL
COc1ccc(CCNC(=O)CCc2cn(C)c3ccccc23)c(OC)c1	16.9 µg/mL (≈ 46.1 µM)
NC(=O)c1ccc(Nc2ccc3nonc3c2[N+](=O)[O-])cc1	17.9 µg/mL (≈ 59.8 µM)
O=C(Nc1cccc(OC(=O)N2CCCCC2)c1)N1CCOCC1	> 50 µg/mL

SMILES	solubility kinetic
COc1ccc(N(Cc2cc(=O)[nH]c3ccccc23)C(C)=O)cc1	> 48.4 µg/mL
Cc1ccc(OCCC(=O)OCC(=O)Nc2ccccc2)cc1	16.5 µg/mL (≈ 52.7 µM)
Cc1ccc(C(OC(=O)c2ccco2)C(=O)NC2CCCC2)cc1 (stereo not given)	2 µg/mL (≈ 6.11 µM)
O=C(CNS(=O)(=O)c1ccc(Br)cc1)N1CCN(Cc2ccccc2)CC1	7.2 µg/mL (≈ 15.9 µM)
O=C(CSc1nnc(C2CC2)n1-c1ccccc1)NC1CCS(=O)(=O)C1 (stereo not given)	> 58.9 µg/mL
Cc1csc(NC(=O)CSCC(=O)O)c1-c1nc2ccccc2s1	48.6 µg/mL (≈ 128 µM)
C/C(=N/O)c1ccc2ccc3ccccc3c2c1	0.6 µg/mL (≈ 2.55 µM)
CN1C/C(=C/c2ccncc2)C(=O)/C(=C/c2ccncc2)C1	40.9 µg/mL (≈ 140 µM)
CC(C)CC(=O)c1c[nH]c(C(=O)NCc2ccccc2)c1	1.6 µg/mL (≈ 5.63 µM)
CCCCCCC(=O)Nc1ccc(Br)cn1	1.6 µg/mL (≈ 5.61 µM)
CCCC(=O)O/N=C(\c1ccccc1)c1ccncc1	38.4 µg/mL (≈ 143 µM)
CC(=O)NC(CC(=O)Nc1nc(C)cs1)c1ccccc1 (stereo not given)	> 45.5 µg/mL
O=C(COC(=O)CCC(=O)c1ccc(F)cc1)NCc1ccccc1Cl	> 56.7 µg/mL
CCOc1c(C)cc(S(=O)(=O)NCc2cccnc2)c(C)c1C	45.2 µg/mL (≈ 135 µM)
O=C(COC(=O)c1ccco1)Nc1ccc2[nH]c(=O)[nH]c2c1	9.3 µg/mL (≈ 30.9 µM)
COC(=O)Cn1cc(C(=O)c2ccccc2F)c2ccccc21	32.4 µg/mL (≈ 104 µM)
CCOc1ccc(NC(=O)c2ccccc2NC(=O)CNC2CCCC(C)C2C)cc1 (stereo not given)	2.2 µg/mL (≈ 5.19 µM)
C=CCn1c(SCC(=O)N(C)CC(=O)Nc2ccc(C)cc2)nnc1-c1ccncc1	> 65.5 µg/mL
O=C(COC(=O)C1CCCCC1)Nc1cc([N+](=O)[O-])ccc1F	36.4 µg/mL (≈ 112 µM)
O=[N+]([O-])c1ccccc1CNC1CCCc2ccccc21 (stereo not given)	20.8 µg/mL (≈ 73.7 µM)
O=C(O)CSc1cccnc1Sc1ccc(Cl)cc1	> 46.8 µg/mL
Cn1c(-c2ccccc2)c(C=O)c2ccccc21	19.5 µg/mL (≈ 82.9 µM)
Cc1ccc(NC(=O)C2CC(=O)N(C(C)c3ccccc3)C2)cc1 (stereo not given)	> 48.4 µg/mL
CC(=O)C1=C(C)NC2=C(C(=O)CC(C)(C)C2)C1C (stereo not given)	> 37.1 µg/mL
